From the supplement of paper PMC8612539
In brackets after ≈: the same amount, converted by molar mass.

System: Pasteurella multocida
Experiment: minimum inhibitory concentration (MIC)
Procedure: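 Broth microdilution MIC (Sensititre BOPO7F bovine plate, CLSI methods) of 19 antimicrobials against field isolates of P. multocida, M. haemolytica, H. somni (deep nasopharyngeal swabs) and E. coli, Enterococcus spp. (rectal swabs) from weaned dairy heifers. Incubation 16-24 h at 35 C. MIC is the lowest concentration preventing visible growth. Values with <= or > lie at the tested range limits. Trimethoprim-sulfamethoxazole is given as the trimethoprim component of a 1:19 mixture.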

CCCN1C[C@H](C)[C@@H](O)[C@](C)(O)[C@@H](CC)OC(=O)[C@H](C)[C@@H](O[C@H]2C[C@@](C)(OC)[C@@H](O)[C@H](C)O2)[C@H](C)[C@@H](O[C@@H]2O[C@H](C)C[C@H](N(C)C)[C@H]2O)[C@](C)(O)C[C@H]1C [Gamithromycin]
Conditions	minimum inhibitory concentration [µg/mL]
isolate (source animal id): 10	8 (≈ 10.3 µM)
isolate (source animal id): 11	8 (≈ 10.3 µM)
isolate (source animal id): 12	8 (≈ 10.3 µM)
isolate (source animal id): 19	8 (≈ 10.3 µM)
isolate (source animal id): 23	4 (≈ 5.15 µM)
isolate (source animal id): 26	4 (≈ 5.15 µM)
isolate (source animal id): 98	8 (≈ 10.3 µM)
isolate (source animal id): 104	> 8
isolate (source animal id): 115	> 8
isolate (source animal id): 117	8 (≈ 10.3 µM)
isolate (source animal id): 118	8 (≈ 10.3 µM)
isolate (source animal id): 121	> 8
isolate (source animal id): 124	8 (≈ 10.3 µM)
isolate (source animal id): 125	8 (≈ 10.3 µM)
isolate (source animal id): 128	> 8
isolate (source animal id): 131	> 8
isolate (source animal id): 135	> 8
isolate (source animal id): 136	> 8
isolate (source animal id): 140	> 8
isolate (source animal id): 144	8 (≈ 10.3 µM)
isolate (source animal id): 146	8 (≈ 10.3 µM)
isolate (source animal id): 150	> 8
isolate (source animal id): 151	> 8
isolate (source animal id): 153	> 8
isolate (source animal id): 155	8 (≈ 10.3 µM)
isolate (source animal id): 157	4 (≈ 5.15 µM)
isolate (source animal id): 160	> 8
isolate (source animal id): 164	> 8
isolate (source animal id): 165	> 8
isolate (source animal id): 167	≤ 1
isolate (source animal id): 168	8 (≈ 10.3 µM)
isolate (source animal id): 169	≤ 1
isolate (source animal id): 170	2 (≈ 2.57 µM)
isolate (source animal id): 171	≤ 1
isolate (source animal id): 172	≤ 1
isolate (source animal id): 173	> 8
isolate (source animal id): 174	≤ 1
isolate (source animal id): 175	≤ 1
isolate (source animal id): 176	≤ 1
isolate (source animal id): 177	≤ 1
isolate (source animal id): 178	≤ 1
isolate (source animal id): 179	≤ 1
isolate (source animal id): 182	4 (≈ 5.15 µM)
isolate (source animal id): 192	≤ 1
isolate (source animal id): 193	≤ 1
isolate (source animal id): 195	2 (≈ 2.57 µM)
isolate (source animal id): 196	≤ 1
isolate (source animal id): 197	2 (≈ 2.57 µM)
isolate (source animal id): 198	> 8
isolate (source animal id): 199	≤ 1
isolate (source animal id): 200	≤ 1
isolate (source animal id): 201	≤ 1
isolate (source animal id): 203	≤ 1
isolate (source animal id): 204	≤ 1
isolate (source animal id): 205	> 8
isolate (source animal id): 206	≤ 1
isolate (source animal id): 207	≤ 1
isolate (source animal id): 208	≤ 1
isolate (source animal id): 209	≤ 1
isolate (source animal id): 210	> 8
isolate (source animal id): 213	≤ 1
isolate (source animal id): 216	≤ 1
isolate (source animal id): 223	8 (≈ 10.3 µM)
isolate (source animal id): 227	≤ 1
isolate (source animal id): 229	8 (≈ 10.3 µM)
isolate (source animal id): 233	8 (≈ 10.3 µM)
isolate (source animal id): 234	8 (≈ 10.3 µM)
isolate (source animal id): 237	8 (≈ 10.3 µM)
isolate (source animal id): 241	8 (≈ 10.3 µM)
isolate (source animal id): 245	8 (≈ 10.3 µM)
isolate (source animal id): 247	8 (≈ 10.3 µM)
isolate (source animal id): 250	8 (≈ 10.3 µM)
isolate (source animal id): 254	8 (≈ 10.3 µM)
isolate (source animal id): 255	8 (≈ 10.3 µM)
isolate (source animal id): 258	≤ 1
isolate (source animal id): 261	8 (≈ 10.3 µM)
isolate (source animal id): 262	8 (≈ 10.3 µM)
